Measurements taken from patent publication US8778385B1, “Medicated animal food composition” (I Care for Dogs Corp., priority 2005, dated 2014).
Entries after “also recorded” stand apart in the source; their conditions may differ.

Key:
canines = settings: cited from earlier work
tear staining = assay: controlling tear staining in Maltese dogs; assay type: in vivo
Text: In preparation of the medicated animal food composition, all of the ingredients (except for the tylosin) are initially processed into a powder and then mixed together with the tylosin, as a tartrate. Tylosin is available from the Omaha Vaccine Co. under the brand name TYLAN and is a veterinary antibiotic that is FDA-approved for fowl (chickens/turkeys) and swine (pigs). Tylosin is used primarily to treat respiratory disease caused by Mycoplasma gallisepticum.

SMILES	side effects when used to treat excessive tearing (canines)	effect in controlling tear staining (tear staining)
CN(C)[C@@H]1C(O)=C(C(N)=O)C(=O)[C@@]2(O)C(O)=C3C(=O)c4c(O)cccc4[C@@](C)(O)[C@H]3C[C@@H]12 [Tetracycline]	upset stomach; also recorded: staining of the teeth	–
CC[C@H]1OC(=O)C[C@@H](O)[C@H](C)[C@@H](O[C@@H]2O[C@H](C)[C@@H](O[C@H]3C[C@@](C)(O)[C@@H](O)[C@H](C)O3)[C@H](N(C)C)[C@H]2O)[C@@H](CC=O)C[C@@H](C)C(=O)/C=C/C(C)=C/[C@@H]1CO[C@@H]1O[C@H](C)[C@@H](O)[C@@H](OC)[C@H]1OC [Tylosin]	–	some beneficial effect
